experiment: Solubility in TFP; format: physicochemical; conditions: solvent TFP (2,2,3,3-tetrafluoro-1-propanol)

Row | SMILES | Solubility (in TFP) [%]
1 | CCCN1/C(=C/C=C/C2=[N+](CCC(C)C)c3ccc4ccccc4c3C2(C)CC=CCC2(C)C(/C=C/C=C3/N(CCC)c4ccccc4C3(C)C)=[N+](CCC(C)C)c3ccc4ccccc4c32)C(C)(C)c2ccccc21 (centres unmarked) [Compound No. 34] | 4.17
2 | CN1/C(=C/C=C/C2=[N+](Cc3ccccc3)c3ccc4ccccc4c3C2(C)CC=CCC2(C)C(/C=C/C=C3/N(C)c4ccc5ccccc5c4C3(C)Cc3ccccc3)=[N+](Cc3ccccc3)c3ccc4ccccc4c32)C(C)(Cc2ccccc2)c2c1ccc1ccccc21 (centres unmarked) [Compound No. 29] | 5.3

Results, then the compound that gave them:

Row | Solubility (in TFP) [%] | SMILES
3 | 4.8 | CN1/C(=C/C=C/C2=[N+](C)c3ccc4ccccc4c3C2(C)Cc2ccc(Oc3ccc(CC4(C)C(/C=C/C=C5/N(C)c6ccc7ccccc7c6C5(C)Cc5ccccc5)=[N+](C)c5ccc6ccccc6c54)cc3)cc2)C(C)(Cc2ccccc2)c2c1ccc1ccccc21 (centres unmarked) [Compound No. 1]
4 | 3.6 | CCN1/C(=C/C=C/C2=[N+](C)c3ccc4ccccc4c3C2(C)Cc2ccc(Cc3ccc(CC4(C)C(/C=C/C=C5/N(CC)c6ccc7ccccc7c6C5(C)Cc5ccccc5)=[N+](C)c5ccc6ccccc6c54)cc3)cc2)C(C)(Cc2ccccc2)c2c1ccc1ccccc21 (centres unmarked) [Compound No. 13]
5 | 5.3 | CN1/C(=C/C=C/C2=[N+](C)c3ccc4ccccc4c3C2(C)CC=CCC2(C)C(/C=C/C=C3/N(C)c4ccc5ccccc5c4C3(C)Cc3ccccc3)=[N+](C)c3ccc4ccccc4c32)C(C)(Cc2ccccc2)c2c1ccc1ccccc21 (centres unmarked) [Compound No. 26]

From patent US8759534B2, “Trimethine cyanine and its use” (Orgchem Technologies, Inc., priority 2011, dated 2014)
